Drawing on ChEMBL document CHEMBL1133639, “Subtype-selective N-methyl-D-aspartate receptor antagonists: synthesis and biological evaluation of 1-(heteroarylalkynyl)-4-benzylpiperidines” (J Med Chem, 2000), this text covers IC50 and minimal effective dose for 26 compounds.

Broadly, the IC50 is the midpoint of a concentration-inhibition curve.

Assay [1] has as its target Glutamate receptor ionotropic, NMDA 1 (Homo sapiens, UniProt Q05586+Q12879). The assay is described as follows: Concentration required for 50% Inhibition of responses at cloned NR1A/2A NMDA expressed in Xenopus oocytes. Type of assay: cell-based, Oocyte.
The target of assay [2] is Glutamate receptor ionotropic, NMDA 1 (Homo sapiens, UniProt Q05586). Put plainly: Concentration required for 50% Inhibition of responses at cloned NR1A/2AB NMDA expressed in Xenopus oocytes. Format: cell-based, Oocyte.
For assay [3], the target named is Glutamate receptor ionotropic, NMDA 1 (Homo sapiens, UniProt Q05586+Q14957). The assay is described as follows: Concentration required for 50% Inhibition of responses at cloned NR1A/2C NMDA expressed in Xenopus oocytes. Type of assay: cell-based, Oocyte.
For assay [4], the target named is Glutamate receptor ionotropic, NMDA 2C (Rattus norvegicus, UniProt P35439+Q00961). Put plainly: Concentration required for 50% Inhibition of responses at cloned NR1A/2C N-methyl-D-aspartate (NMDA) expressed in Xenopus oocytes. Format: cell-based, Oocyte.
In assay [5] the target is T1, Adrenergic receptor alpha-1 (Rattus norvegicus, UniProt P15823+P23944+P43140).
T1 sequence (P15823 whole entry): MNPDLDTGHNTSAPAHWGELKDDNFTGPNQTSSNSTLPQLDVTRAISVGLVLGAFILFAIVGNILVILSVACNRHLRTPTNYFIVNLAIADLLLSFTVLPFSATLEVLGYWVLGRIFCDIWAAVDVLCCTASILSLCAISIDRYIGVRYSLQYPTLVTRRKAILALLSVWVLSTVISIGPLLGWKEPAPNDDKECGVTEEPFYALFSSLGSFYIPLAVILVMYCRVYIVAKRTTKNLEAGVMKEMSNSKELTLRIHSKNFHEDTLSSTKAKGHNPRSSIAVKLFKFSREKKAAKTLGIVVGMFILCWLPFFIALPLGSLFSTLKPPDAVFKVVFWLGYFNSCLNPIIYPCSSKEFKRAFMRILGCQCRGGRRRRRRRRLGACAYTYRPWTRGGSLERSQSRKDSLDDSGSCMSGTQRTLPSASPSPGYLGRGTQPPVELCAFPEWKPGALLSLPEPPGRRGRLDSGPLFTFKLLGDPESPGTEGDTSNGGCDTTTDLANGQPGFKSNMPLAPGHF
T1 sequence (P23944 whole entry): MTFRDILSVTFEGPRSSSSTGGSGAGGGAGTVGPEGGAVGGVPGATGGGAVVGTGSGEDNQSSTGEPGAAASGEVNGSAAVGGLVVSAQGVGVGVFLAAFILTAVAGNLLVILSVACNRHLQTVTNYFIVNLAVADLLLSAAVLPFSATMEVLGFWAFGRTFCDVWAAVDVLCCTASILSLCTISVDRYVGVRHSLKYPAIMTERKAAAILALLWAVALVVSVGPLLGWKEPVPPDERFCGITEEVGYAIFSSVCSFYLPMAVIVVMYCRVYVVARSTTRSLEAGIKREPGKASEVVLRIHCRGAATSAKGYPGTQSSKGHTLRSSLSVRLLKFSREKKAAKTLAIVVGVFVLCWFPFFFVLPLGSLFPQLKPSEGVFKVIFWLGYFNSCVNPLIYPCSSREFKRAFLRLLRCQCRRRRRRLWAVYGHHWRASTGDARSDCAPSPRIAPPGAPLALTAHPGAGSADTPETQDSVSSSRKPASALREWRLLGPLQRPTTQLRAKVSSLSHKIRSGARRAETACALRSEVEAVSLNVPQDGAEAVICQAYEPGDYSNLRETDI
T1 sequence (P43140 whole entry): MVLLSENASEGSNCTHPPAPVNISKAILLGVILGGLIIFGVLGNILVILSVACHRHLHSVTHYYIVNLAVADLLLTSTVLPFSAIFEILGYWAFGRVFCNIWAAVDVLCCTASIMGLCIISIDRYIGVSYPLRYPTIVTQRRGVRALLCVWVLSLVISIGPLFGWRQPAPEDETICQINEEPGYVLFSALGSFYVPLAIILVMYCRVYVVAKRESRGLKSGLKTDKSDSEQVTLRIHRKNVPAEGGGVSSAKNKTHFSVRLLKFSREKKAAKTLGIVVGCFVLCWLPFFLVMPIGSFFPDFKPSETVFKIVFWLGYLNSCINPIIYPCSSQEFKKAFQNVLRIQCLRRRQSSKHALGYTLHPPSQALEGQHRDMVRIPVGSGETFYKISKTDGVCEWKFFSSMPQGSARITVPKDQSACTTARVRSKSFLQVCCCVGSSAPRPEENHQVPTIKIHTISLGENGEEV
Put plainly: Displacement of [3H]prazosin at alpha-1 adrenergic receptor in rat brain cortices (n=1). Type of assay: tissue-based. In general terms: Loss of bound radioactivity is the signal in a displacement assay; it reports binding, not function.

In another assay the target is D(2) dopamine receptor (Rattus norvegicus, UniProt P61169). The assay is described as follows: Displacement of [3H]raclopride at Dopamine receptor D2 in brain striata (n=1). Format: tissue-based.
Assay [6] relates to Rattus norvegicus. The assay is described as follows: Lowest oral dose that shows significant potentiation of total contraversive rotations over 3 hr caused by L-DOPA (10mg/kg, sc) in 6-hydroxydopamine-lesioned rats (n=8)administered perorally. Format: functional. The note with it: read-out: MED.
Assay [7] concerns the target Glutamate NMDA receptor; Grin1/Grin2a (Rattus norvegicus, UniProt P35439+Q00959). The assay is described as follows: Concentration required for 50% Inhibition of responses at cloned NR1A/2A N-methyl-D-aspartate (NMDA) expressed in Xenopus oocytes. Type of assay: cell-based, Oocyte.
Assay [8] addresses T1, Adrenergic receptor alpha-1. The assay is described as follows: Displacement of [3H]-prazosin at alpha-1 adrenergic receptor inat brain cortices (n=1).
The test system of assay [9] is Rattus norvegicus. The assay is described as follows: Lowest oral dose that shows significant potentiation of total contraversive rotations over 3 hr caused by L-DOPA (10mg/kg, sc) in 6-hydroxydopamine-lesioned rats (n=8) administered perorally. Format: functional. The following applies: read-out: MED.
The subject of assay [10] is Rattus norvegicus. Put plainly: Lowest oral dose that shows significant potentiation of total contraversive rotations over 3 hr caused by L-DOPA (10mg/kg, sc) in 6-hydroxydopamine-lesioned rats (n=8);administered perorally. Type of assay: functional. The note with it: read-out: MED.

Sequence of D(2) dopamine receptor (P61169 whole entry): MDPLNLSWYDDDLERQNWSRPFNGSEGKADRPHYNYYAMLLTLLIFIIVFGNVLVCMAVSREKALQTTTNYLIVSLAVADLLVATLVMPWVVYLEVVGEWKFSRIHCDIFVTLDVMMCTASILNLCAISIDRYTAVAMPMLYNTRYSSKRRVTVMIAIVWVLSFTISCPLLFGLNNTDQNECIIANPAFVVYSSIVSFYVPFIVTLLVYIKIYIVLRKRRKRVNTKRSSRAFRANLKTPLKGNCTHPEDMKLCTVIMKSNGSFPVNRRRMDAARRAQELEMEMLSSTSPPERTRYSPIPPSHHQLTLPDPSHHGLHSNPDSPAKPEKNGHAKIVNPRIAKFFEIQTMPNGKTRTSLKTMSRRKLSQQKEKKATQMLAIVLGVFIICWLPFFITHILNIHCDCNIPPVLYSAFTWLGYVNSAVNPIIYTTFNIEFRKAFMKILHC
Sequence of Glutamate receptor ionotropic, NMDA 2C (Q00961 whole entry, one chain of several): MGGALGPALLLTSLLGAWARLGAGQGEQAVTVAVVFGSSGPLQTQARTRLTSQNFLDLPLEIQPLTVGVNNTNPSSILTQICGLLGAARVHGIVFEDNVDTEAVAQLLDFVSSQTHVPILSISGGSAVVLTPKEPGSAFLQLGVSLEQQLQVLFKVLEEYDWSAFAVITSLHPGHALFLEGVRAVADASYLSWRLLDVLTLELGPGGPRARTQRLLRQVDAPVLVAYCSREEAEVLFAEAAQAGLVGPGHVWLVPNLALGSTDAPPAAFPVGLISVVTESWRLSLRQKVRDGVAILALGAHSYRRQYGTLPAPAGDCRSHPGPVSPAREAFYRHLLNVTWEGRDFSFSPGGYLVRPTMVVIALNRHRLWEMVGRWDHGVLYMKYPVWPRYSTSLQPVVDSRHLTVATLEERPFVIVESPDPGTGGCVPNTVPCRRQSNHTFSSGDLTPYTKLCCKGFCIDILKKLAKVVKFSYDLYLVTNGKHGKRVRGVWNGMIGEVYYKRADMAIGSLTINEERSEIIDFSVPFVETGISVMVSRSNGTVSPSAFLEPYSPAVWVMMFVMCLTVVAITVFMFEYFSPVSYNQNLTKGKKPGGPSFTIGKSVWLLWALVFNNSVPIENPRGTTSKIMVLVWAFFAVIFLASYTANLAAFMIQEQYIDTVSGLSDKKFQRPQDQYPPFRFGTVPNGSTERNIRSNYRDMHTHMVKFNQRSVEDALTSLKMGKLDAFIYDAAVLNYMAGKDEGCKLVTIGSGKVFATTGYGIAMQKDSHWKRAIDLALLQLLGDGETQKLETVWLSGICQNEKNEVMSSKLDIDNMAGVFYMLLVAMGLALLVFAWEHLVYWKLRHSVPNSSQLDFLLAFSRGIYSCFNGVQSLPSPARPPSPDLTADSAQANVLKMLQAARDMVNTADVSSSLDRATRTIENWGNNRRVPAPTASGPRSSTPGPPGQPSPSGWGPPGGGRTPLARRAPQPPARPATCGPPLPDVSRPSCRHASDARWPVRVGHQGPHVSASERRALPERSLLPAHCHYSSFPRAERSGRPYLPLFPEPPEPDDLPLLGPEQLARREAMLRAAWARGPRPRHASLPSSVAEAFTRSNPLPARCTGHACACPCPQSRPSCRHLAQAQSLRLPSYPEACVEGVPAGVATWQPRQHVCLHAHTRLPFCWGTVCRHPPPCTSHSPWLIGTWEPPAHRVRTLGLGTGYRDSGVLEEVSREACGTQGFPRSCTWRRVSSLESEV
Sequence of Glutamate NMDA receptor; Grin1/Grin2a (Q00959 whole entry, looked up, other chains not shown): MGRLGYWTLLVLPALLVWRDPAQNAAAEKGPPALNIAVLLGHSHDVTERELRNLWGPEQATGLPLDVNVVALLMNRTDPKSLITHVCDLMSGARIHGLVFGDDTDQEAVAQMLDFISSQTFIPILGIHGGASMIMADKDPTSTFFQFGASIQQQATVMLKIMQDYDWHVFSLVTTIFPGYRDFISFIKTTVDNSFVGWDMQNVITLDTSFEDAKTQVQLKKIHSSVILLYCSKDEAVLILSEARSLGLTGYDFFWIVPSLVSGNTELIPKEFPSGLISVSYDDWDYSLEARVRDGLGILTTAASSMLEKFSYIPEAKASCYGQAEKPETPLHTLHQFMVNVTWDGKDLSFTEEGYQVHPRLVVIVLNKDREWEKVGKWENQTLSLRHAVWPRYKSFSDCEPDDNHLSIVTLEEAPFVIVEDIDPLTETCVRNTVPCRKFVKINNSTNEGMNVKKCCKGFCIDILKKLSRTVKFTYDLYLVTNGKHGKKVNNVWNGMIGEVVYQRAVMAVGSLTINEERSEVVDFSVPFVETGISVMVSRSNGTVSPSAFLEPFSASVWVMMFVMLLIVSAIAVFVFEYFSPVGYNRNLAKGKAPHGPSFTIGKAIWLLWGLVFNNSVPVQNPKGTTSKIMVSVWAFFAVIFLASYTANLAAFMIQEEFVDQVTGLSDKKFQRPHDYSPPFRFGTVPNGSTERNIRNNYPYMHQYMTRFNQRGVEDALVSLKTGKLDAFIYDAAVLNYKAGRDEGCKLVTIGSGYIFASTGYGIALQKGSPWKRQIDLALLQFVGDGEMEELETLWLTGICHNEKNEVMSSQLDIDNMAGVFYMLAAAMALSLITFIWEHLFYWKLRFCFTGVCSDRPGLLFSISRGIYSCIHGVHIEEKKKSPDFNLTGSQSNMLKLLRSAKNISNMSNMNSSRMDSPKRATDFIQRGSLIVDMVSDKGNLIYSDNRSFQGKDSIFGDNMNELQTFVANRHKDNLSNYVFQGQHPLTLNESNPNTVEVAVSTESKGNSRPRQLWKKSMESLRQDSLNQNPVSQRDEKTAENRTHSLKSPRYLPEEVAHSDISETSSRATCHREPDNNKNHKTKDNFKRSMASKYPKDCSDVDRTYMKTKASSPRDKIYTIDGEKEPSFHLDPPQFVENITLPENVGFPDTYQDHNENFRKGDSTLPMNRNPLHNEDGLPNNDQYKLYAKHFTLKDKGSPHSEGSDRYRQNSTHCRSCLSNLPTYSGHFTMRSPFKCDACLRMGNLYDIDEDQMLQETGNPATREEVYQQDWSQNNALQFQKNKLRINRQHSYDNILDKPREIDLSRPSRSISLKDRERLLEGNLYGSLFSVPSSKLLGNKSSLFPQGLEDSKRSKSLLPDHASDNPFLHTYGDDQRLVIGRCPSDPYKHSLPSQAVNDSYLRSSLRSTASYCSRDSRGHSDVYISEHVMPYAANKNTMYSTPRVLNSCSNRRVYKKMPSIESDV

Take `O=c1[nH]c2ccc(C#CCCN3CCC(Cc4ccccc4)CC3)cc2o1`: the IC50 in assay [1] is 39 µM; in assay [2], 0.12 µM; in assay [3], above 100 µM.
The matching figures for `C(#Cc1ccc2[nH]ccc2c1)CN1CCC(Cc2ccccc2)CC1`: above 100 µM, 15 µM and above 100 µM.
As to `O=C1Nc2ccc(C#CCCN3CCC(Cc4ccccc4)CC3)cc2C1=O`, the IC50 was 57 µM in assay [1], 1.8 µM in [2] and above 100 µM in assay [4].
As to `Cn1c(=O)[nH]c2cc(C#CCN3CCC(Cc4ccccc4)CC3)ccc21`, the results for the 50% inhibitory concentration (IC50) in [1], in assay [2] and in assay [3] were 89 µM, 62 µM and above 100 µM, respectively.
The matching figures for `C(#Cc1ccc2nn[nH]c2c1)CCN1CCC(Cc2ccccc2)CC1`: above 100 µM, 0.22 µM and above 100 µM.
With `C(#Cc1ccc2[nH]ncc2c1)CN1CCC(Cc2ccccc2)CC1`, the values for the concentration for half-maximal inhibition (IC50) in assay [1], in assay [2] and in assay [3] were above 100 µM, 0.38 µM and above 100 µM, respectively.
On to `Cn1c(=O)[nH]c2ccc(C#CCN3CCC(Cc4ccccc4)CC3)cc21`, for which the IC50 in [3] is above 100 µM.
On to `O=C1Cc2cc(C#CCCN3CCC(Cc4ccccc4)CC3)ccc2N1`, for which the IC50 is 52 µM in assay [1], 0.32 µM in [2] and above 100 µM in assay [3].
The matching figures for `C(#Cc1ccc2[nH]nnc2c1)CN1CCC(Cc2ccccc2)CC1`: above 100 µM, 0.42 µM and above 100 µM.
As to `S=c1[nH]c2ccc(C#CCCN3CCC(Cc4ccccc4)CC3)cc2[nH]1`, the IC50 in [1] was 75 µM; in [2], 0.18 µM; in [3], above 100 µM.
Regarding `S=c1[nH]c2ccc(C#CCN3CCC(Cc4ccccc4)CC3)cc2[nH]1`, the IC50 in assay [1] is 25 µM; in assay [2], 0.016 µM; in [3] it was above 100 µM.
The matching figures for `O=C1Cc2cc(C#CCN3CCC(Cc4ccccc4)CC3)ccc2N1`: above 100 µM, 0.11 µM and above 100 µM.
Regarding `Oc1nc2cc(C#CCN3CCC(Cc4ccccc4)CC3)ccc2[nH]1`, the results for the IC50 (in assay [5]; on D(2) dopamine receptor) were 0.5 µM and 2.6 µM, respectively. In the assay with Rattus norvegicus [6], the minimal effective dose came out at 10 mg/kg.
As to `C(#Cc1ccc2cc[nH]c2c1)CCN1CCC(Cc2ccccc2)CC1`, the IC50 in [7] and in assay [4] was above 100 µM throughout.
As to `O=c1[nH]c2ccc(C#CCCN3CCC(Cc4ccccc4)CC3)cc2[nH]1`, the 50% inhibitory concentration (IC50) was 39 µM in [1], 0.089 µM in assay [2] and above 100 µM in assay [3].
As for `Oc1nc2cc(C#CCN3CCC(Cc4ccc(F)cc4)CC3)ccc2[nH]1`, the half-inhibitory concentration (IC50) in [5] is 1.2 µM; on D(2) dopamine receptor it was 1.7 µM; in assay [1], 38 µM; in assay [2] it was 0.0082 µM; in [3], above 100 µM. The minimal effective dose in the assay on Rattus norvegicus [6] is 30 mg/kg.
`Oc1nc2cc(C#CCN3CCC(O)(Cc4ccc(F)cc4)CC3)ccc2[nH]1`: the IC50 in assay [8] was 18 µM; at D(2) dopamine receptor it was 41 µM. The minimal effective dose in the assay with Rattus norvegicus [9] was above 30 mg/kg.
`Oc1nc2cc(C#CCN3CCC(Cc4cccc(F)c4)CC3)ccc2[nH]1`: the IC50 is 0.7 µM in assay [5]; 3.9 µM on D(2) dopamine receptor; above 100 µM in assay [1]; 0.0061 µM in [2]; above 100 µM in assay [3]. In addition, the minimal effective dose in the assay with Rattus norvegicus [6] was above 30 mg/kg.
Turning to `C(#Cc1ccc2[nH]ncc2c1)CCN1CCC(Cc2ccccc2)CC1`, the IC50 in assay [1] is 95 µM; in assay [2] it was 0.25 µM; in assay [3], above 100 µM.
The matching figures for `O=C1COc2cc(C#CCCN3CCC(Cc4ccccc4)CC3)ccc2N1`: above 100 µM, 1.1 µM and above 100 µM.
For the compound `Oc1nc2cc(C#CCN3CCC(Cc4ccc(Cl)cc4)CC3)ccc2[nH]1`, the results for the half-maximal inhibitory concentration (IC50) (in assay [5]; at D(2) dopamine receptor; in assay [2]) were 5.8 µM, 3.7 µM and 0.019 µM, respectively. For the same compound, the minimal effective dose in the assay on Rattus norvegicus [10] was 30 mg/kg.
For `Oc1nc2ccc(C#CCN3CCC(Cc4ccccc4)CC3)cc2o1`, in assay [2], half-maximal inhibition (IC50) was put at 0.049 µM.
On to `COc1ccc(CC2CCN(CC#Cc3ccc4[nH]c(O)nc4c3)CC2)cc1`, for which the IC50 in [5] was 17 µM; on D(2) dopamine receptor, 9.9 µM; in assay [1] it was above 100 µM; in assay [2], 0.026 µM; in assay [3], above 100 µM. Moreover, the minimal effective dose in the assay on Rattus norvegicus [6] is above 30 mg/kg.
In the case of `Oc1nc2cc(C#CCN3CCC(O)(Cc4ccccc4)CC3)ccc2[nH]1`, the IC50 was 55 µM in [5]; 86 µM at D(2) dopamine receptor; above 100 µM in assay [1]; 0.019 µM in [2]; above 100 µM in assay [3].
For the compound `Cc1ccc(CC2CCN(CC#Cc3ccc4[nH]c(O)nc4c3)CC2)cc1`, the IC50 in assay [5] worked out at 3.1 µM; at D(2) dopamine receptor, 14 µM; in [2], 0.017 µM. In the assay with Rattus norvegicus [6], the minimal effective dose came to 30 mg/kg.
On to `Oc1ccc(C#CCN2CCC(Cc3ccccc3)CC2)cc1`, for which the IC50 in [7] and in assay [4] was above 100 µM each time.
